Measured values from patent US20240382540A1, “MODULATION OF FUSOBACTERIUM VARIUM TO PREVENT BOVINE LIVER ABSCESSES AND IMPROVE CATTLE PERFORMANCE” (priority 2023, published 2024).

How the values were obtained:
[1] = tested on: F. varium; assay: Rumen fluid enrichment cultures with lactate; assay type: cell-based, Fusobacterium varium; conditions: lactate present in rumen fluid enrichment cultures
From the text: Microbial lactate utilization is linked to several pathogenic mechanisms. […] Currently it is unknown if some or all cattle-associated F. varium strains are able to derive energy from lactate. […] Thus, it is possible that the acquisition of this or a similar mobile genetic element has provided some bovine F. varium strains with the capability of utilizing lactate as a source of energy and a means for avoiding host immunity.
This identification was based on 16S rRNA sequencing using close to the full-length gene (27F/1492R primers), a reliable method for determining bacterial species (FIG. 1).

[2] = tested on: F. necrophorum; assay: Antimicrobial susceptibility testing: growth of F. necrophorum strains exposed to tylosin and monensin; assay type: cell-based, Fusobacterium necrophorum; conditions: for decline/reduction in growth: F. necrophorum strain 8L1; for growth inhibition: all three F. necrophorum strains tested
From the text: (§1) In an effort to understand the differential response of Fusobacterium species to antimicrobial agents commonly used in livestock, we examined the effect of tylosin and monensin on the growth of reference strains and newly isolated strains of F. varium and F. necrophorum.
(§2) To set up the experiment, we exposed three strains each of F. varium and F. necrophorum to tylosin and monensin at concentrations relevant to ruminal environments.
Strains A and 8L1 were most affected, with both displaying a 98% reduction in growth. […] In this context, growth reductions of 44-66% were observed (P<0.05).

[3] = tested on: F. varium; assay: Antimicrobial susceptibility testing: growth of F. varium strains exposed to tylosin and monensin; assay type: cell-based, Fusobacterium varium; conditions: for growth inhibition: all tested F. varium strains
From the text: as §1, §2

[4] = tested on: Fusobacterium necrophorum; conditions: grain-fed cattle; antibiotic as component of cattle feed; cited from earlier work
[5] = concentrations relevant to ruminal environments

| Molecule | decline/reduction in growth [2] | growth inhibition [2] | growth inhibition [3, 5] | ruminal concentrations of Fusobacterium necrophorum [4] | further results |
| --- | --- | --- | --- | --- | --- |
| CC(O)C(=O)O (stereo not drawn) [lactate] | – | – | – | – | enrichment of native F. varium strains [1]: up to 35,000 fold |
| CC[C@@]1([C@@H]2O[C@@H]([C@H]3O[C@@](O)(CO)[C@H](C)C[C@@H]3C)C[C@@H]2C)CC[C@H]([C@]2(C)CC[C@]3(C[C@H](O)[C@@H](C)[C@@H]([C@@H](C)[C@@H](OC)[C@H](C)C(=O)O)O3)O2)O1 [monensin] | 98% | more than 87% | did not show substantial growth inhibition | – | reduction in growth ([2]; F. necrophorum strain A): 98%; growth reduction ([2]; F. necrophorum, medium containing only casein pancreatic digest and yeast extract as carbon sources): 44-66%; decrease in growth ([3]; F. varium bovine isolates, concentrations relevant to ruminal environments): 15%; growth response ([3]; reference strain F. varium NCTC 10560): no significant response |
| CC[C@H]1OC(=O)C[C@@H](O)[C@H](C)[C@@H](O[C@@H]2O[C@H](C)[C@@H](O[C@H]3C[C@@](C)(O)[C@@H](O)[C@H](C)O3)[C@H](N(C)C)[C@H]2O)[C@@H](CC=O)C[C@@H](C)C(=O)/C=C/C(C)=C/[C@@H]1CO[C@@H]1O[C@H](C)[C@@H](O)[C@@H](OC)[C@H]1OC [tylosin] | 92% | over 67% | none of the tested strains exhibited substantial growth inhibition | significantly reduced | decline in growth ([2]; F. necrophorum strain FNA): 94%; decline in growth ([3]; strain F. varium DNLA-8, concentrations relevant to ruminal environments): 13% |
| virginiamycin | – | – | – | significantly reduced | – |
